We go through 27 molecules from patent US20230312562A1, “TETRAHYDRO-3H-PYRAZOLO QUINOLONE AND TETRAHYDRO-3H-PYRROLO[3,2-F]QUINOLINE -CONTAINING COMPOUNDS AND USES THEREOF” (Purdue Research Foundation, priority 2020, published 2023).

For one test, the system named is MDA-MB-231. The experiment in a line: Inhibition of MDA-MB-231 viability/growth at 1 μM, 72 h. As to conditions: 1 μM compound, 72 h incubation. The class given is cell-based.
For `Nc1n[nH]c2cc([C@@H]3Nc4c(Cl)cc5[nH]ncc5c4[C@H]4[C@@H]5CC[C@@H](C5)[C@H]43)ccc12` (stereo in doubt) [Compound 24, 6-(5-Chloro-6,7,7a,8,9,10,11,11a-octahydro-3H-8,11-methanopyrazolo[4,3-a]phenanthridin-7-yl)-1H-indazol-3-amine], the “Inhibition of MDA-MB-231, result in words” value (“Inhibition … in words” for short) was “inactive”.

Consider `Nc1n[nH]c2cc([C@@H]3Nc4c(Br)cc5[nH]ncc5c4[C@H]4[C@@H]5CC[C@@H](C5)[C@H]43)ccc12` (stereo in doubt) [Compound 25, 6-(5-Bromo-6,7,7a,8,9,10,11,11a-octahydro-3H-8,11-methanopyrazolo[4,3-a]phenanthridin-7-yl)-1H-indazol-3-amine], for which the “Inhibition … in words” value was “inactive”.

On to `Nc1n[nH]c2ccc([C@@H]3Nc4ccc5[nH]nc(F)c5c4[C@H]4C5CC[C@@H](C5)[C@@H]34)cc12` (stereo in doubt) [Compound 21, 5-(1-Fluoro-6,7,7a,8,9,10,11,11a-octahydro-3H-8,11-methanopyrazolo[4,3-a]phenanthridin-7-yl)-1H-indazol-3-amine], for which the “Inhibition … in words” value was “loss of potency”.

Consider `Nc1n[nH]c2ccc([C@@H]3Nc4ccc5[nH]cnc5c4[C@H]4C5CC[C@@H](C5)[C@@H]34)cc12` (stereo in doubt) [Compound 19, 5-(6,7,7a,8,9,10,11,11a-Octahydro-3H-8,11-methanoimidazo[4,5-a]phenanthridin-7-yl)-1H-indazol-3-amine], for which the “Inhibition … in words” value is “loss in potency”.

As to `Nc1n[nH]c2ccc([C@@H]3Nc4ccc5[nH]ncc5c4[C@H]4OCCO[C@H]43)cc12` (stereo in doubt) [Compound 33, 5-(2,3,4a,6,9,11c-Hexahydro-5H-[1,4]dioxino[2,3-c]pyrazolo[4,3-f]quinolin-5-yl)-1H-indazol-3-amine], the “Inhibition … in words” value is “no activity”.

Turning to `Cc1n[nH]c2ccc3c(c12)[C@H]1C2CC[C@@H](C2)[C@H]1[C@H](c1ccc2[nH]nc(N)c2c1)N3` (stereo in doubt) [Compound 20, 5-(1-Methyl-6,7,7a,8,9,10,11,11a-octahydro-3H-8,11-methanopyrazolo[4,3-a]phenanthridin-7-yl)-1H-indazol-3-amine], the “Inhibition … in words” value is “loss of potency”.

For `Nc1n[nH]c2ccc([C@@H]3Nc4ccc5[nH]nnc5c4[C@H]4C5CC[C@@H](C5)[C@@H]34)cc12` (stereo in doubt) [Compound 18, 5-(6,7,7a,8,9,10,11,11a-Octahydro-3H-8,11-methano[1,2,3]triazolo[4,5-a]phenanthridin-7-yl)-1H-indazol-3-amine], the “Inhibition … in words” value was “loss in potency”.

The same test, now with this note: Homo sapiens, MDA-MB-231; 1 μM compound, 72 h incubation.
In the case of `c1csc([C@@H]2Nc3ccc4[nH]ncc4c3[C@H]3[C@@H]4CC[C@@H](C4)[C@H]32)n1` (stereo in doubt) [Compound 3, 2-(6,7,7a,8,9,10,11,11a-Octahydro-3H-8,11-methanopyrazolo[4,3-a]phenanthridin-7-yl)thiazole], the inhibition at 1 µM was determined as 13%.

The molecule `Nc1n[nH]c2cc([C@@H]3Nc4ccc5[nH]ncc5c4[C@H]4[C@@H]5CC[C@@H](C5)[C@H]43)ccc12` (stereo in doubt) [Compound 30, 6-(6,7,7a,8,9,10,11,11a-Octahydro-3H-8, 11-methanopyrazolo[4,3-a]phenanthridin-7-yl)-1H-indazol-3-amine] showed an inhibition at 1 µM of 29%.

`Oc1ccc([C@@H]2Nc3ccc4[nH]ncc4c3[C@H]3C4CC[C@@H](C4)[C@@H]23)cc1` (stereo in doubt) [Compound 11, 4-(−6,7,7a,8,9,10,11,11a-Octahydro-3H-8,11-methanopyrazolo[4,3-a]phenanthridin-7-yl)phenol] came in with an inhibition at 1 µM of 0%.

Take `Oc1ccc([C@@H]2Nc3ccc4[nH]ncc4c3[C@H]3C4CC[C@@H](C4)[C@@H]23)c(F)c1` (stereo in doubt) [Compound 14, 3-Fluoro-4-(6,7,7a,8,9,10,11,11a-octahydro-3H-8,11-methanopyrazolo[4,3-a]phenanthridin-7-yl)phenol]: the inhibition at 1 µM worked out at 11%.

Turning to `Fc1cnccc1[C@@H]1Nc2ccc3[nH]ncc3c2[C@H]2[C@@H]3CC[C@@H](C3)[C@H]21` (stereo in doubt) [Compound 7, 7-(3-Fluoropyridin-4-yl)-6,7,7a,8,9,10,11,11a-octahydro-3H-8,11-methanopyrazolo[4,3-a]phenanthridine], testing at 1 µM gave an inhibition of 11%.

The molecule `Nc1n[nH]c2ccc([C@@H]3Nc4ccc5cn[nH]c5c4[C@H]4[C@@H]5CC[C@@H](C5)[C@H]43)cc12` (stereo in doubt) [Compound 31, 5-(6,7,7a,8,9,10,11,11a-Octahydro-1H-8,11-methanopyrazolo[3,4-a]phenanthridin-7-yl)-1H-indazol-3-amine] showed an inhibition at 1 µM of 94%.

`Nc1n[nH]c2ccc(-c3nc4ccc5[nH]ncc5c4c4c3[C@H]3CC[C@@H]4C3)cc12` (stereo in doubt) [Compound 32, 5-(8,9,10,11-tetrahydro-3H-8,11-Methanopyrazolo[4,3-a]phenanthridin-7-yl)-1H-indazol-3-amine] yielded an inhibition at 1 µM of 19%.

Molecule `NC(=O)c1ccc([C@@H]2Nc3ccc4[nH]ncc4c3[C@H]3C4CC[C@@H](C4)[C@@H]23)cc1` (stereo in doubt) [Compound 12, 4-(6,7,7a,8,9,10,11,11a-Octahydro-3H-8,11-methanopyrazolo[4,3-a]phenanthridin-7-yl)benzamide] showed an inhibition at 1 µM of 17%.

`COc1cnccc1[C@@H]1Nc2ccc3[nH]ncc3c2[C@H]2C3CC[C@@H](C3)[C@@H]12` (stereo in doubt) [Compound 15, 7-(3-Methoxypyridin-4-yl)-6,7,7a,8,9,10,11,11a-octahydro-3H-8,11-methanopyrazolo[4,3-a]phenanthridine] yielded an inhibition at 1 µM of 12%.

Turning to `N#Cc1cc([C@@H]2Nc3ccc4[nH]ncc4c3[C@H]3[C@@H]4CC[C@@H](C4)[C@H]32)ccc1F` (stereo in doubt) [Compound 10, 2-Fluoro-5-(−6,7,7a,8,9,10,11,11a-octahydro-3H-8,11-methanopyrazolo[4,3-a]phenanthridin-7-yl)benzonitrile], testing at 1 µM gave an inhibition of 3%.

Molecule `O=C(Nc1n[nH]c2ccc([C@@H]3Nc4ccc5[nH]ncc5c4[C@H]4[C@@H]5CC[C@@H](C5)[C@H]43)cc12)C1CC1` (stereo in doubt) [Compound 28, N-(5-(6,7,7a,8,9,10,11,11a-octahydro-3H-8,11-Methanopyrazolo[4,3-a]phenanthridin-7-yl)-1H-indazol-3-yl)cyclopropanecarboxamide] displayed an inhibition at 1 µM of 31%.

Consider `FC(F)(F)c1ccc([C@@H]2Nc3ccc4[nH]ncc4c3[C@H]3[C@@H]4CC[C@@H](C4)[C@H]32)cc1` (stereo in doubt) [Compound 6, 7-(4-(Trifluoromethyl)phenyl)-6,7,7a,8,9,10,11,11a-octahydro-3H-8,11-methanopyrazolo[4,3-a]phenanthridine], for which the inhibition at 1 µM is 21%.

As to `c1n[nH]cc1[C@@H]1Nc2ccc3[nH]ncc3c2[C@H]2[C@@H]3CC[C@@H](C3)[C@H]21` (stereo in doubt) [Compound 2, 7-(1H-Pyrazol-4-yl)-6,7,7a,8,9,10,11,11a-octahydro-3H-8,11-methanopyrazolo[4,3-a]phenanthridine], the inhibition at 1 µM is 12%.

For the molecule `FC(F)(F)c1n[nH]cc1[C@@H]1Nc2ccc3[nH]ncc3c2[C@H]2[C@@H]3CC[C@@H](C3)[C@H]21` (stereo in doubt) [Compound 1, 7-(3-(Trifluoromethyl)-1H-pyrazol-4-yl)-6,7,7a,8,9,10,11,11a-octahydro 3H-8,11-methanopyrazolo[4,3-a]phenanthridine], the inhibition at 1 µM came to 5%.

Regarding `c1cc2[nH]ncc2cc1[C@@H]1Nc2ccc3[nH]ncc3c2[C@H]2C3CC[C@@H](C3)[C@@H]12` (stereo in doubt) [Compound 16, 7-(1H-Indazol-5-yl)-6,7,7a,8,9,10,11,11a-octahydro-3H-8,11-methanopyrazolo[4,3-a]phenanthridine], at 1 µM the inhibition was 78%.

For the molecule `c1nc([C@@H]2Nc3ccc4[nH]ncc4c3[C@H]3[C@@H]4CC[C@@H](C4)[C@H]32)c[nH]1` (stereo in doubt) [Compound 4, 7-(1H-Imidazol-4-yl)-6,7,7a,8,9,10,11,11a-octahydro-3H-8,11-methanopyrazolo[4,3-a]phenanthridine], the inhibition at 1 µM stood at 14%.

`Cn1cc([C@@H]2Nc3ccc4[nH]ncc4c3[C@H]3[C@@H]4CC[C@@H](C4)[C@H]32)c(C(F)(F)F)n1` (stereo in doubt) [Compound 5, 7-(1-Methyl-3-(trifluoromethyl)-1H-pyrazol-4-yl)-6,7,7a,8,9,10,11,11a-octahydro-3H-8,11-methanopyrazolo[4,3-a]phenanthridine] came in with an inhibition at 1 µM of 70%.

In turn, `Nc1ccc([C@@H]2Nc3ccc4[nH]ncc4c3[C@H]3[C@@H]4CC[C@@H](C4)[C@H]32)cn1` (stereo in doubt) [Compound 9, 5-(6,7,7a,8,9,10,11,11a-Octahydro-3H-8,11-methanopyrazolo[4,3-a]phenanthridin-7-yl)pyridin-2-amine] came in with an inhibition at 1 µM of 18%.

`Cn1cc([C@@H]2Nc3ccc4[nH]ncc4c3[C@H]3C4CC[C@@H](C4)[C@@H]23)c(C2CC2)n1` (stereo in doubt) [Compound 13, 7-(3-Cyclopropyl-1-methyl-1H-pyrazol-4-yl)-6,7,7a,8,9,10,11,11a-octahydro-3H-8,11-methanopyrazolo[4,3-a]phenanthridine] showed an inhibition at 1 µM of 0%.

Turning to `Nc1nc2ccc([C@@H]3Nc4ccc5[nH]ncc5c4[C@H]4[C@@H]5CC[C@@H](C5)[C@H]43)cc2s1` [Compound 29, 6-(6,7,7a,8,9,10,11,11a-Octahydro-3H-8,11-methanopyrazolo[4,3-a]phenanthridin-7-yl)benzo[d]thiazol-2-amine], the inhibition at 1 µM was found to be 41%.

In general, inhibition refers to the percentage by which the read-out fell short of the control.
